Among the data in PubChem BioAssay (NCI) are TGI values, retold here.

Test systems include A549 NSCLC; BT-549 breast; NCI-H460 lung; RPMI-8226 leukemia; SW-620 colon; K-562 leukemia; EKVX NSCLC; UO-31 renal; HL-60(TB) leukemia; MALME-3M melanoma; MCF7 breast; LOX IMVI melanoma; CAKI-1 renal; MDA-N.
Common to all, as to assay: NCI tumour cell line growth inhibition, 48 h

The structures appear in SMILES notation.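 Results reflect a 48-hour exposure of cells in 96-well plates to compound at five concentrations. TGI: total growth inhibition.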

For the compound `CC(C)CCCC(C)[C@H]1CC[C@H]2[C@@H]3CC[C@H]4C[C@@H](CCC=C(c5cc(Cl)c(O)c(C(=O)O)c5)c5cc(Cl)c(O)c(C(=O)O)c5)CC[C@]4(C)[C@H]3CC[C@]12C` (stereo partly drawn) (tested in a mixture with another compound), the TGI in the assay on A549 NSCLC, with BT-549 breast, in the assay on NCI-H460 lung, in the assay on RPMI-8226 leukemia, in the assay on SW-620 colon and in the assay on K-562 leukemia was more than 50 µM in each case. Also, the TGI was more than 50 µM in the assay with EKVX NSCLC; 27.2 µM in the assay with UO-31 renal; more than 50 µM with HL-60(TB) leukemia; more than 50 µM in the assay on MALME-3M melanoma; more than 50 µM with MCF7 breast; more than 50 µM in the assay on LOX IMVI melanoma. Besides, in the assay on CAKI-1 renal, the TGI was more than 50 µM.
For `COc1cc(C2c3cc4c(cc3OC(NCc3ccccc3)C2C)OCO4)cc(OC)c1OC` (stereo not drawn), the TGI is more than 94 µM in the assay on A549 NSCLC; 16.4 µM in the assay with BT-549 breast; more than 34.7 µM with NCI-H460 lung; 24.2 µM in the assay on RPMI-8226 leukemia; more than 36 µM with SW-620 colon; more than 37.8 µM with K-562 leukemia. Moreover, the TGI was more than 100 µM in the assay with EKVX NSCLC; 26.4 µM in the assay on UO-31 renal; 0.699 µM with HL-60(TB) leukemia; 0.671 µM with MALME-3M melanoma; 48.7 µM in the assay on MCF7 breast; 17.2 µM with LOX IMVI melanoma. In addition, in the assay on CAKI-1 renal, the TGI is 0.982 µM.
Regarding `CCSC(=O)/C=C1\CN(C(=O)OC(C)(C)C)C1C(=O)OC(C)(C)C` (stereo not drawn), the TGI was determined as 26.4 µM in the assay on A549 NSCLC; 22.4 µM with BT-549 breast; 23.2 µM with NCI-H460 lung; 4.77 µM with RPMI-8226 leukemia; 4.1 µM in the assay with SW-620 colon; 4.63 µM with K-562 leukemia. Further, the TGI with EKVX NSCLC stood at 26 µM; with UO-31 renal it was 10 µM; with HL-60(TB) leukemia, 4.42 µM; in the assay with MALME-3M melanoma, 4.42 µM; with MCF7 breast it was 16.8 µM; in the assay on LOX IMVI melanoma, 3.3 µM. Besides, in the assay on CAKI-1 renal, the TGI is 13.3 µM.
`Cc1ccc(S(=O)(=O)c2c3[nH]c4ccccc4nc3n3c2nc2ccccc23)cc1`: the TGI in the assay with A549 NSCLC, in the assay on NCI-H460 lung, in the assay on RPMI-8226 leukemia, with SW-620 colon, in the assay with K-562 leukemia and in the assay on EKVX NSCLC was more than 100 µM each time. Further, the TGI in the assay with UO-31 renal, in the assay with HL-60(TB) leukemia, in the assay with MALME-3M melanoma, in the assay with LOX IMVI melanoma and in the assay on CAKI-1 renal was more than 100 µM each time.
On to `CC(C)(C)c1cc(C(=O)/C=C/c2ccc3c(c2)CCO3)cc(C(C)(C)C)c1O`, for which the TGI in the assay on A549 NSCLC was 22.9 µM; with BT-549 breast, more than 63.6 µM; with NCI-H460 lung, 1.92 µM; in the assay on RPMI-8226 leukemia, 4.45 µM; in the assay with SW-620 colon it was more than 100 µM; with K-562 leukemia, more than 100 µM. For the same compound, the TGI is more than 100 µM with EKVX NSCLC; more than 54 µM with UO-31 renal; 5.53 µM in the assay on HL-60(TB) leukemia; more than 100 µM in the assay on MALME-3M melanoma; more than 100 µM in the assay on MCF7 breast; more than 100 µM in the assay on LOX IMVI melanoma. This compound had a TGI in the assay with CAKI-1 renal of 22.1 µM.
With `O=C(CC(C(=O)c1cccs1)c1ccsc1)c1ccco1` (stereo not drawn), the TGI in the assay with A549 NSCLC was 42.9 µM; in the assay with NCI-H460 lung, 81.9 µM; in the assay with RPMI-8226 leukemia it was more than 100 µM; in the assay on MDA-N, more than 100 µM; in the assay with SW-620 colon it was more than 100 µM; in the assay on EKVX NSCLC, more than 100 µM. Moreover, the TGI with UO-31 renal was 59 µM; with HL-60(TB) leukemia, 41.3 µM; in the assay on MCF7 breast it was 42.3 µM; in the assay on LOX IMVI melanoma, more than 100 µM; in the assay on CAKI-1 renal, 77.3 µM.
On to `C=CCCCCCC(O)C(O)C/C=C\C/C=C\CC` (stereo not drawn), for which the TGI in the assay with A549 NSCLC, in the assay on NCI-H460 lung, in the assay with RPMI-8226 leukemia, in the assay with SW-620 colon, in the assay on K-562 leukemia and with EKVX NSCLC was more than 18.8 µM in each case. For the same compound, the TGI in the assay on UO-31 renal, in the assay on HL-60(TB) leukemia, with MALME-3M melanoma, in the assay on LOX IMVI melanoma and in the assay with CAKI-1 renal was more than 18.8 µM each time.
`O=[N+]([O-])/C=C/COCc1cc2c(cc1Br)OCO2`: the TGI is 38.5 µM in the assay with A549 NSCLC; more than 100 µM in the assay on NCI-H460 lung; more than 100 µM in the assay with RPMI-8226 leukemia; 32.8 µM in the assay with MDA-N; 39.4 µM in the assay with SW-620 colon; more than 100 µM with K-562 leukemia. For the same compound, the TGI was 48.8 µM in the assay on EKVX NSCLC; 32.3 µM with UO-31 renal; 33.5 µM with MCF7 breast; more than 100 µM in the assay with LOX IMVI melanoma; 35.6 µM in the assay with CAKI-1 renal.
Take `O=C1c2c(nc3ccccc3c2-c2ccccc2)CN1Nc1ccccc1`: the TGI in the assay with A549 NSCLC, in the assay on RPMI-8226 leukemia, with SW-620 colon, with K-562 leukemia, in the assay with EKVX NSCLC and with UO-31 renal was more than 100 µM in each case. Further, the TGI in the assay on HL-60(TB) leukemia, in the assay with MALME-3M melanoma, in the assay on LOX IMVI melanoma and with CAKI-1 renal was more than 100 µM throughout.
With `O=Cc1ccc(-c2cccc([N+](=O)[O-])c2)s1`, the TGI in the assay on A549 NSCLC, in the assay on BT-549 breast, with NCI-H460 lung, with RPMI-8226 leukemia, in the assay on SW-620 colon and in the assay with K-562 leukemia was more than 100 µM each time. Further, the TGI in the assay on EKVX NSCLC, in the assay with UO-31 renal, with HL-60(TB) leukemia, with MCF7 breast, in the assay with LOX IMVI melanoma and in the assay with CAKI-1 renal was more than 100 µM each time.
As to `Clc1ccc(-c2nnc(C34CC5CC(CC(C5)C3)C4)o2)cc1`, the TGI with A549 NSCLC, in the assay with NCI-H460 lung, in the assay on RPMI-8226 leukemia, with MDA-N, with SW-620 colon and in the assay with K-562 leukemia was more than 100 µM each time. Moreover, the TGI in the assay with EKVX NSCLC is more than 100 µM; in the assay on UO-31 renal, 14.6 µM; with HL-60(TB) leukemia it was more than 100 µM; with MALME-3M melanoma, more than 100 µM; in the assay on LOX IMVI melanoma it was more than 100 µM; in the assay on CAKI-1 renal, more than 100 µM.
With `O=S1c2ccccc2SCSc2ccccc21`, the TGI in the assay with A549 NSCLC is more than 100 µM; in the assay with NCI-H460 lung, more than 100 µM; in the assay with RPMI-8226 leukemia, 70.1 µM; with MDA-N it was more than 100 µM; in the assay with K-562 leukemia it was 75.8 µM; in the assay with UO-31 renal it was more than 100 µM. For the same compound, the TGI in the assay on MALME-3M melanoma, in the assay with MCF7 breast and in the assay with CAKI-1 renal was more than 100 µM in each case.
On to `N#CC(NNC(=O)c1ccccc1O)c1ccccc1` (stereo not drawn), for which the TGI with A549 NSCLC was more than 100 µM; with NCI-H460 lung it was more than 100 µM; in the assay with RPMI-8226 leukemia it was more than 100 µM; in the assay on SW-620 colon, more than 100 µM; in the assay with K-562 leukemia, more than 100 µM; with UO-31 renal, 6.03 µM. For the same compound, the TGI with HL-60(TB) leukemia was 52.5 µM; in the assay with MALME-3M melanoma it was more than 100 µM; in the assay on LOX IMVI melanoma it was more than 100 µM; in the assay with CAKI-1 renal, more than 100 µM.
Regarding `COc1ccc(CCc2ccccc2CC(=O)O)cc1`, the TGI in the assay with A549 NSCLC, in the assay with NCI-H460 lung, in the assay with RPMI-8226 leukemia, in the assay with SW-620 colon, with K-562 leukemia and in the assay with EKVX NSCLC was more than 100 µM in each case. Further, the TGI with UO-31 renal, in the assay with HL-60(TB) leukemia, in the assay on MALME-3M melanoma, in the assay on LOX IMVI melanoma and with CAKI-1 renal was more than 100 µM in each case.
On to `CC1=NN(C(=O)c2ccc(Cl)cc2)C(=O)/C1=C/c1ccc(O)cc1`, for which the TGI in the assay with A549 NSCLC, with NCI-H460 lung, in the assay with RPMI-8226 leukemia, with SW-620 colon, with K-562 leukemia and in the assay on EKVX NSCLC was more than 100 µM each time. For the same compound, the TGI in the assay with UO-31 renal, in the assay on HL-60(TB) leukemia, in the assay with MALME-3M melanoma, with LOX IMVI melanoma and in the assay with CAKI-1 renal was more than 100 µM throughout.
With `N#CN1CCC=C(c2cc3ccccc3[nH]2)C1`, the TGI in the assay with A549 NSCLC, in the assay with NCI-H460 lung, in the assay on RPMI-8226 leukemia, with SW-620 colon, in the assay with K-562 leukemia and in the assay with EKVX NSCLC was more than 448 µM throughout. In addition, the TGI in the assay on HL-60(TB) leukemia, in the assay on MALME-3M melanoma, in the assay with LOX IMVI melanoma and with CAKI-1 renal was more than 448 µM throughout.
Regarding `COC1=CC(=O)[C@]2(C)[C@H](C1=O)C(C)[C@H]2c1ccccc1` (stereo partly drawn), the TGI in the assay on A549 NSCLC, with NCI-H460 lung, in the assay on RPMI-8226 leukemia, in the assay with SW-620 colon, in the assay with K-562 leukemia and in the assay on EKVX NSCLC was more than 100 µM each time. Also, the TGI in the assay with UO-31 renal, with HL-60(TB) leukemia, with MALME-3M melanoma, in the assay on LOX IMVI melanoma and in the assay with CAKI-1 renal was more than 100 µM throughout.
In the case of `[C-]#[N+]C1(C(=O)OCC)CC1`, the TGI in the assay on A549 NSCLC, in the assay on NCI-H460 lung, in the assay with RPMI-8226 leukemia, with MDA-N, in the assay with SW-620 colon and in the assay with K-562 leukemia was more than 100 µM in each case. In addition, the TGI with EKVX NSCLC, in the assay with HL-60(TB) leukemia, in the assay with MALME-3M melanoma, in the assay on MCF7 breast and with LOX IMVI melanoma was more than 100 µM in each case.
